Series [1] can be described thus: Crystal agglomerate particle sizing by laser diffraction (Malvern dry dispersion). It counts as physicochemical. As to the method: This was carried out by laser diffraction using a Malvern 2000 dry disperser. The settings used for sizing are set out below: [table] Sample preparation—Triplicate Invert sample jar or vial 10 times. Weigh approximately 2 g of sample and transfer to the sample tray. Evenly disperse sample in sample tray.

Series [2] can be described thus: XRPD limit test for crystal form conversion (Forms D and N) in packaged tablet. Format: physicochemical. Particulars: proposed storage condition, proposed commercial packaging. An excerpt:
The stability of the ridinilazole crystal form within the tablet as packaged in the intended commercial packaging configurations. Assessments have been made using a validated discriminatory X-ray powder diffraction (XRPD) method developed as a limit test for detecting Forms D and N within the drug product.

Series [3] can be described thus: BCS classification and solubility of drug substance. Conditions: across physiologically relevant pH. Format: physicochemical. An excerpt: Ridinilazole is a BCS class IV, orally administered and locally acting (lower intestines) GI antibiotic with minimal systemic exposure and very low solubility across physiologically relevant pH. BCS class IV drugs are known to present particular formulation challenges, especially in the case of oral formulations (see e.g. Ghadi and Dand (2017) BCS class IV drugs: Highly notorious candidates for formulation development Journal of Controlled Release, 248: 71-95).

Series [4] has as its system Clostridioides difficile infection (CDI). Conditions: Phase 2 trial, CDI recurrence; cited from earlier work.
[5] abbreviates: Table 5, input drug substance at limits of specification, listed as 1.
[6] abbreviates: Table 6, micronized ridinilazole tetrahydrate, additional studies, listed as 1.
The mark [7] stands for this setting: Table 5, input drug substance at limits of specification, listed as 2.
Where [8] appears, read: Table 6, micronized ridinilazole tetrahydrate, additional studies, listed as 2.
Where [9] appears, read: Table 5, input drug substance at limits of specification, listed as 3.
The mark [10] stands for this setting: Table 6, micronized ridinilazole tetrahydrate, additional studies, listed as 3.
[11] abbreviates: Table 5, input drug substance at limits of specification, listed as 4.
Where [12] appears, read: Table 6, micronized ridinilazole tetrahydrate, additional studies, listed as 4.
Where [13] appears, read: Table 6, micronized ridinilazole tetrahydrate, additional studies, listed as 5.

On to `O.O.O.O.c1cc(-c2nc3ccc(-c4ccc5nc(-c6ccncc6)[nH]c5c4)cc3[nH]2)ccn1` [Batch 1, ridinilazole tetrahydrate], for which, in series [1] (setting [5]), the D10 came to 2 μm, the D50 was found to be 7 μm and the D90 worked out at 20 μm. In addition, in series [1] (setting [6]), the D10 is recorded as 1.5 μm, the D50 came to 6 μm and the D90 turned out to be 14 μm.
In series [1] (setting [7]), `O.O.O.O.c1cc(-c2nc3ccc(-c4ccc5nc(-c6ccncc6)[nH]c5c4)cc3[nH]2)ccn1` [Batch 2, ridinilazole tetrahydrate] came in with a D10 of 1 μm, a D50 of 5 μm and a D90 of 11 μm. In series [1] (setting [8]), this compound gave a D10 of 1.1 μm, a D50 of 5 μm and a D90 of 11 μm.
For the compound `O.O.O.O.c1cc(-c2nc3ccc(-c4ccc5nc(-c6ccncc6)[nH]c5c4)cc3[nH]2)ccn1` [Batch 3, ridinilazole tetrahydrate], in series [1] (setting [9]), the D10 was determined as 1 μm, the D50 amounted to 5 μm and the D90 turned out to be 11 μm. In addition, in series [1] (setting [10]), the D10 is listed as 1.7 μm, the D50 is given as 7 μm and the D90 was determined as 14 μm.
For the compound `O.O.O.O.c1cc(-c2nc3ccc(-c4ccc5nc(-c6ccncc6)[nH]c5c4)cc3[nH]2)ccn1` [Batch 4, ridinilazole tetrahydrate], in series [1] (setting [11]), the D10 is given as 1 μm, the D50 is recorded as 3 μm and the D90 turned out to be 10 μm. Besides, in series [1] (setting [12]), the D10 is 1.5 μm, the D50 is 6 μm and the D90 stood at 13 μm.
With `O.O.O.O.c1cc(-c2nc3ccc(-c4ccc5nc(-c6ccncc6)[nH]c5c4)cc3[nH]2)ccn1` [Batch 5, ridinilazole tetrahydrate], in series [1] (setting [13]), the D10 is 2.0 μm, the D50 came out at 7 μm and the D90 is 14 μm.
`c1cc(-c2nc3cc(-c4ccc5[nH]c(-c6ccncc6)nc5c4)ccc3[nH]2)ccn1` [Form A, ridinilazole tetrahydrate]: the “crystal form conversion within the tablet” value in series [2] is reported as “No form conversion is detected”.
In the case of `c1cc(-c2nc3ccc(-c4ccc5nc(-c6ccncc6)[nH]c5c4)cc3[nH]2)ccn1` [ridinilazole, 2,2′-di(pyridin-4-yl)-1H,1′H-5,5′-bibenzo[d]imidazole], the solubility result in series [3] is reported as “very low”. Moreover, the “rates of recurrent disease” value in series [4] is 14.3%.
Take `CN[C@H](CC(C)C)C(=O)N[C@H]1C(=O)N[C@@H](CC(N)=O)C(=O)N[C@H]2C(=O)N[C@H]3C(=O)N[C@H](C(=O)N[C@H](C(=O)O)c4cc(O)cc(O)c4-c4cc3ccc4O)[C@H](O)c3ccc(c(Cl)c3)Oc3cc2cc(c3O[C@@H]2O[C@H](CO)[C@@H](O)[C@H](O)[C@H]2O[C@H]2C[C@](C)(N)[C@H](O)[C@H](C)O2)Oc2ccc(cc2Cl)[C@H]1O` [vancomycin, reference compound]: the “rates of recurrent disease” value in series [4] is given as 34.8%.
